# Patent US20200275656A1, “TRISUBSTITUTEDSILYLMETHYLPHENOXYQUINOLINES AND ANALOGUES” (Bayer Aktiengesellschaft, priority 2017, published 2020)
# Test system: Colletotrichum lindemuthianum
# Experiment: Example B: in vitro cell test on Colletotrichum lindemuthianum
# Assay type: cell-based
# Conditions: 120 h, 20 ppm of active ingredient, liquid culture, 5 days incubation, read-out: efficacy (inhibition of fungal growth)
row,SMILES,inhibition at 20 ppm [%]
1,"Cc1nc2ccccc2cc1Oc1ccccc1C[Si](C)(C)C [I.05, 2-methyl-3-{2-[(trimethylsilyl)methyl]phenoxy}quinoline]",90 to 100
2,"C[Si](C)(O)Cc1c(Cl)cccc1Oc1cnc2ccccc2c1 [I.25, [2-chloro-6-(quinolin-3-yloxy)benzyl](dimethyl)silanol]",90 to 100
3,"C[Si](C)(Cc1ccccc1Oc1cnc2c(F)cccc2c1)c1cccs1 [I.46, 3-(2-{[dimethyl(2-thienyl)silyl]methyl}phenoxy)-8-fluoroquinoline]",90 to 100

# Test system: Pyricularia oryzae
# Experiment: microbe, parasite or virus in culture
# Assay type: cell-based
# Conditions: 120 h, read-out: efficacy (inhibition of fungal growth)
row,SMILES,inhibition at 20 ppm [%]
1,"Cc1nc2ccccc2cc1Oc1ccccc1C[Si](C)(C)C [I.05, 2-methyl-3-{2-[(trimethylsilyl)methyl]phenoxy}quinoline]",90 to 100
2,"C[Si](C)(Cc1ccccc1Oc1cnc2c(F)cccc2c1)c1cccs1 [I.46, 3-(2-{[dimethyl(2-thienyl)silyl]methyl}phenoxy)-8-fluoroquinoline]",90 to 100

# Test system: not listed separately
# Experiment: log P determination by HPLC on reversed-phase column (C 18), EEC Directive 79/831 Annex V.A8
# Assay type: physicochemical
# Conditions: Table 1; HPLC, 40° C., 0.1% aqueous formic acid and acetonitrile
# Method: In table 1, the log P values were determined in accordance with EEC Directive 79/831 Annex V.A8 by HPLC (High Performance Liquid Chromatography) on a reversed-phase column (C 18), using the method described below:
# temperature: 40° C.; mobile phases: 0.1% aqueous formic acid and acetonitrile; linear gradient from 10% acetonitrile to 95% acetonitrile; Calibration was carried out using unbranched alkan-2-ones (comprising 3 to 16 carbon atoms) with known log P values (determination of the log P values by the retention times using linear interpolation between two successive alkanones). lambda-max-values were determined using UV-spectra from 200 nm to 400 nm and the peak values of the chromatographic signals.
row,SMILES,logP
1,C[Si](C)(C)Cc1ccccc1Cc1cnc2ccccc2c1 [I.01],4.28
2,C[Si](C)(C)Cc1ccccc1Oc1cnc2ccccc2c1 [I.02],5.48
3,C[Si](C)(O)Cc1ccccc1Cc1cnc2ccccc2c1 [I.03],2.13
4,C[Si](C)(C)Cc1ccccc1Oc1cnc2ccccc2n1 [I.04],5.36
5,Cc1cccc2cc(Oc3ccccc3C[Si](C)(C)C)cnc12 [I.06],6.60
6,Cc1nc2ccccc2nc1Oc1ccccc1C[Si](C)(C)C [I.07],5.59
7,C[Si](C)(C)Cc1cc(F)ccc1Nc1cnc2ccccc2c1 [I.08],3.69
8,C[Si](C)(C)Cc1ccccc1Nc1cnc2c(F)cccc2c1 [I.09],4.77
9,C[Si](C)(C)Cc1ccccc1Oc1cnc2c(F)cccc2c1 [I.10],5.45
10,C[Si](C)(C)Cc1c(F)cccc1Oc1cnc2ccccc2c1 [I.11],5.54
11,C[Si](C)(C)Cc1ccccc1Oc1cnc2c(F)cccc2n1 [I.12],5.26
12,C[Si](C)(O)Cc1c(F)cccc1Oc1cnc2ccccc2c1 [I.13],3.15
13,C=C[Si](C)(C)Cc1ccccc1Oc1cnc2c(F)cccc2c1 [I.14],5.45
14,C=C[Si](C)(C)Cc1c(F)cccc1Oc1cnc2ccccc2c1 [I.15],5.57
15,Cc1cccc2cc(Nc3ccc(F)cc3C[Si](C)(C)C)cnc12 [I.16],4.56
16,Cc1nc2ccccc2cc1Oc1cccc(F)c1C[Si](C)(C)C [I.18],5.38
17,Cc1cccc2cc(Oc3cccc(F)c3C[Si](C)(C)C)cnc12 [I.19],6.70
18,Cc1nc2ccccc2cc1Oc1ccc(F)cc1C[Si](C)(C)C [I.20],5.01
19,C[Si](C)(C)Cc1cc(Cl)ccc1Nc1cnc2ccccc2c1 [I.21],4.39
20,C[Si](C)(C)Cc1c(Cl)cccc1Oc1cnc2ccccc2c1 [I.22],6.17

row,SMILES,logP
1,C[Si](C)(C)Cc1ccccc1Nc1cnc2c(F)c(F)ccc2c1 [I.23],5.03
2,C[Si](C)(C)Cc1ccccc1Oc1cnc2c(F)c(F)ccc2c1 [I.24],5.72
3,C[Si](C)(C)Cc1ccccc1Oc1cnc2c(F)c(F)ccc2n1 [I.26],5.54
4,C=C[Si](C)(C)Cc1c(Cl)cccc1Oc1cnc2ccccc2c1 [I.27],6.11
5,Cc1cccc2cc(Nc3ccc(Cl)cc3C[Si](C)(C)C)cnc12 [I.28],5.38
6,Cc1nc2ccccc2cc1Oc1ccc(Cl)cc1C[Si](C)(C)C [I.29],5.71
7,Cc1nc2c(F)c(F)ccc2cc1Nc1ccccc1C[Si](C)(C)C [I.30],5.32
8,Cc1nc2c(F)c(F)ccc2nc1Oc1ccccc1C[Si](C)(C)C [I.32],5.81
9,C[Si](C)(C)Cc1c(F)cccc1Oc1cnc2c(F)c(F)ccc2n1 [I.33],5.60
10,Cc1nc2c(F)c(F)ccc2cc1Oc1ccc(F)cc1C[Si](C)(C)C [I.34],5.92
11,C[Si](C)(C)Cc1ccccc1Oc1cnc2c(C(F)(F)F)cccc2c1 [I.35],6.28
12,Cc1nc2c(F)c(F)ccc2nc1Oc1c(F)cccc1C[Si](C)(C)C [I.36],5.87
13,C[Si](C)(C)Cc1ccccc1Oc1cnc2c(C(F)(F)F)cccc2n1 [I.37],5.97
14,Cc1cccc2cc(Oc3ccccc3C[Si](C)(C)c3ccccc3)cnc12 [I.38],6.83
15,C[Si](C)(Cc1cc(F)ccc1Nc1cnc2ccccc2c1)c1ccccc1 [I.39],3.99
16,C[Si](C)(Cc1ccccc1Oc1cnc2c(F)cccc2c1)c1ccccc1 [I.40],5.78
17,C[Si](C)(Cc1c(F)cccc1Oc1cnc2ccccc2c1)c1ccccc1 [I.41],5.91
18,C[Si](C)(C)Cc1cc(F)ccc1Nc1cnc2c(C(F)(F)F)cccc2c1 [I.42],5.54
19,C[Si](C)(C)Cc1ccc(Nc2cnc3ccccc3c2)c(C[Si](C)(C)C)c1 [I.43],5.85
20,Cc1nc2c(F)c(F)ccc2nc1Oc1cccc(Cl)c1C[Si](C)(C)C [I.44],6.40

row,SMILES,logP
1,C[Si](C)(C)Cc1c(F)cccc1Oc1cnc2c(C(F)(F)F)cccc2c1 [I.45],6.32
2,C[Si](C)(Cc1c(F)cccc1Oc1cnc2ccccc2c1)c1cccs1 [I.47],5.65
3,C[Si](C)(C)Cc1c(F)cccc1Oc1cnc2c(C(F)(F)F)cccc2n1 [I.48],6.04
4,Cc1nc2c(F)c(F)ccc2nc1Oc1cccc(Cl)c1C[Si](C)(C)O [I.49],4.13
5,Cc1cccc2cc(Nc3ccc(F)cc3C[Si](C)(C)c3ccccc3)cnc12 [I.50],4.90
6,Cc1cccc2cc(Oc3cccc(F)c3C[Si](C)(C)c3ccccc3)cnc12 [I.51],6.90
7,C[Si](C)(Cc1cc(Cl)ccc1Nc1cnc2ccccc2c1)c1ccccc1 [I.52],4.69
8,C[Si](C)(Cc1c(Cl)cccc1Oc1cnc2ccccc2c1)c1ccccc1 [I.53],6.43
9,Cc1cccc2cc(Nc3ccc(C[Si](C)(C)C)cc3C[Si](C)(C)C)cnc12 [I.54],6.93
10,C[Si](C)(C)Cc1cc(Cl)ccc1Nc1cnc2c(C(F)(F)F)cccc2c1 [I.55],6.00
11,C[Si](C)(Cc1c(Cl)cccc1Oc1cnc2ccccc2c1)c1cccs1 [I.56],6.20
12,C[Si](C)(C)Cc1c(Cl)cccc1Oc1cnc2c(C(F)(F)F)cccc2n1 [I.57],6.51
13,Cc1cccc2cc(Nc3ccc(Cl)cc3C[Si](C)(C)c3ccccc3)cnc12 [I.58],5.68
14,COc1ccc([Si](C)(C)Cc2ccccc2Oc2cnc3c(F)cccc3c2)cc1 [I.59],5.62
15,COc1ccc([Si](C)(C)Cc2c(F)cccc2Oc2cnc3ccccc3c2)cc1 [I.60],5.65
16,COc1ccccc1[Si](C)(C)Cc1c(F)cccc1Oc1cnc2ccccc2c1 [I.61],6.01
17,COc1ccccc1[Si](C)(C)Cc1c(Cl)cccc1Oc1cnc2ccccc2c1 [I.62],6.50
18,COc1ccc([Si](C)(C)Cc2c(Cl)cccc2Oc2cnc3ccccc3c2)cc1 [I.63],6.20
19,C[Si](C)(C)Cc1ccc(Nc2cnc3c(C(F)(F)F)cccc3c2)c(C[Si](C)(C)C)c1 [I.65],7.36

# Same assay, conditions: reversed-phase HPLC column (C 18), Table 1; HPLC, 40° C., 0.1% aqueous formic acid and acetonitrile
row,SMILES,chromatographic logP
1,"Cc1nc2ccccc2cc1Oc1ccccc1C[Si](C)(C)C [I.05, 2-methyl-3-{2-[(trimethylsilyl)methyl]phenoxy}quinoline]",5.05
2,"Cc1nc2c(F)cccc2cc1Oc1ccccc1C[Si](C)(C)C [I.17, 8-fluoro-2-methyl-3-{2-[(trimethylsilyl)methyl]phenoxy}quinoline]",5.85
3,"C[Si](C)(O)Cc1c(Cl)cccc1Oc1cnc2ccccc2c1 [I.25, [2-chloro-6-(quinolin-3-yloxy)benzyl](dimethyl)silanol]",3.48
4,"C[Si](C)(Cc1ccccc1Oc1cnc2c(F)cccc2c1)c1cccs1 [I.46, 3-(2-{[dimethyl(2-thienyl)silyl]methyl}phenoxy)-8-fluoroquinoline]",5.6

# Same assay, conditions: reversed-phase HPLC column (C 18), Table 2, compounds of formula (IIa); defined as for table 1
row,SMILES,chromatographic logP
1,"ClCc1c(Cl)cccc1Oc1cnc2ccccc2c1 [IIa.01, 3-[3-chloro-2-(chloromethyl)phenoxy]quinoline]",3.94
2,"Fc1cccc(Oc2cnc3ccccc3c2)c1CCl [IIa.02, 3-[2-(chloromethyl)-3-fluorophenoxy]quinoline]",3.57
3,"Fc1cccc2cc(Oc3ccccc3CBr)cnc12 [IIa.03, 3-[2-(bromomethyl)phenoxy]-8-fluoroquinoline]",3.58

# Same assay, conditions: reversed-phase HPLC column (C 18), Table 3, compounds of formula (V); defined as for table 1
row,SMILES,chromatographic logP
1,"OCc1ccccc1Oc1cnc2c(F)cccc2c1 [V.01, {2-[(8-fluoroquinolin-3-yl)oxy]phenyl}methanol]",2.17

# Same assay, conditions: reversed-phase HPLC column (C 18), stated in preparation examples
row,SMILES,chromatographic logP
1,"Cc1nc2ccccc2cc1Oc1ccccc1C[Si](C)(C)C [I.05, 2-methyl-3-{2-[(trimethylsilyl)methyl]phenoxy}quinoline]",5.05
2,"Cc1nc2c(F)cccc2cc1Oc1ccccc1C[Si](C)(C)C [I.17, 8-fluoro-2-methyl-3-{2-[(trimethylsilyl)methyl]phenoxy}quinoline]",5.85
3,"C[Si](C)(O)Cc1c(Cl)cccc1Oc1cnc2ccccc2c1 [I.25, [2-chloro-6-(quinolin-3-yloxy)benzyl](dimethyl)silanol]",3.48
4,"C[Si](C)(Cc1ccccc1Oc1cnc2c(F)cccc2c1)c1cccs1 [I.46, 3-(2-{[dimethyl(2-thienyl)silyl]methyl}phenoxy)-8-fluoroquinoline]",5.6
5,"Fc1cccc2cc(Oc3ccccc3CBr)cnc12 [IIa.03, 3-[2-(bromomethyl)phenoxy]-8-fluoroquinoline]",3.65
